Reference: patent US9556169B2, “Compounds and compositions for the treatment of parasitic diseases” (NOVARTIS AG, priority 2012, dated 2017)

Key:
[1] = system: Plasmodium yoelii (17XNL) sporozoites; test: Liver stage P. yoelii sporozoite invasion assay in HepG2-A16-CD81EGFP cells; format: cell-based; settings: values without * in Table 2, HepG2-A16-CD81EGFP liver cells, 48 hours, immunofluorescence, read-out: EC50 (nM), P. yoelii Sporozoite Invasion Assay
Description: Assay for Proliferation of Parasite in Infected Liver Cells
Compounds of the invention can be assayed to measure their capacity to inhibit proliferation of parasites in liver cells. The proliferation is quantified by determine the number of infected cells by immunofluorescence.
Due to the difficulty of successfully infecting immortalized human liver cell lines with the human malaria sporozoites (liver-stage parasite), rodent malaria sporozoites from Plasmodium yoelii (17XNL) and P. berghei (ANKA) are the preferred surrogate. Sporozoites are obtained from Anopheles stephensi mosquitoes supplied by the New York University Insectary, which ships the malaria-infected mosquitoes 10-13 days following the ingestion of an infective blood meal.
A transgenic HepG2 cell line expressing the tetraspanin CD81 receptor (HepG2-A16-CD81^EGFP) is used to increase the infectivity rate of rodent-malaria sporozoites into human cells. HepG2-A16-CD81^EGFP cells are stably transformed to express a GFP-CD81 fusion protein. A continuous in vitro culture of this line was maintained at 37° C. in 4% CO2 in complete media (CM) which contains: DMEM (Invitrogen, Carlsbad, USA) supplemented with 10% FCS, 0.29 mg/ml glutamine, 100 units penicillin and 100 μg/ml streptomycin (SigmaAldrich, USA).
Liver Stage P. yoelii Sporozoite Invasion Assay
Twenty to twenty-six hours prior to sporozoite infection, 7.5×10^3 HepG2-A16-CD81^EGFP cells are seeded into 384-well plates (Aurora 384 IQ-EB black plates with clear bottoms; 50 μl of 1.5×10^5 cells/ml in CM). These plates are incubated at 37° C. with 4% CO2 overnight. Two hours prior to infection, 50 nl of compound dissolved in DMSO (0.1% final DMSO concentration per well) were transferred with a PinTool (GNF Systems) into the assay plates (10 μM final concentration). A 1:3 serial dilution of atovaquone (10 μM at the highest final concentration) and wells treated only with DMSO were used as positive and negative controls, respectively.
Freshly dissected salivary glands from infected mosquitoes were homogenized in a glass tissue grinder, filtered twice through Nylon cell strainers (40 μm pore size, BD Falcon) and counted using a hemocytometer. The assay plate with HepG2-A16-CD81^EGFP cells and compound were then infected with 8×10^3 sporozoitesper well and the plates are subjected to a centrifugal force of 650×g to pellet the sporozoites onto the liver cell monolayer. The assay plate is incubated at 37° C. for 2 hours to permit sporozoite invasion, then the media is aspirated from the media plate, and replaced with 50 μl CM (containing a 5× concentration of penicillin/streptomycin; 500 units penicillin and 0.5 mg streptomycin per ml) per well. 50 nl of compound is re-introduced by PinTool and the assay plate incubated for 48 hours at 37° C. before quantification of infected cells by immunofluorescence.
Atovaquone and uninfected wells were used as controls on each plate. Two replicate plates are tested for each assay.
After fixing the cells by addition of 12.5 μl of 20% solution of paraformaldehyde (EMS, Hatfield, USA) to each assay well (4% final formaldehyde concentration), membranes were permeabilized with 0.5% Triton-X-100 (Thermo Fisher Scientific) and EEFs were stained using a mouse polyclonal serum raised against the Plasmodium yoelii heat shock protein 70 (PyHSP70), a DyLight 649 goat anti-mouse IgG, Fc(gamma) fragment specific secondary antibody (Jackson Immuno Research, Cat#115-495-071) and the Hoechst 33342 nucleic acid dye (Invitrogen, Carlsbad, USA). Stained EEFs were then quantified using the Opera Confocal High Content Screening System (Perkin Elmer, Waltham, USA). Images were collected using a 20× objective lens (20×/0.45 NA, LWD Plan Fluor, Olympus) at a binning of 2, using a 365 nm Xeon arc lamp illumination to detect the Hoechst-labeled nuclei and 635 nm laser line to excite DyLight649-labeled parasites. The image resolution yielded was approximately 0.66 μm/pixel (˜0.43 μm 2/pixel). […]

[2] = system: P. falciparum (NF54 or 3D7 strain); test: P. falciparum proliferation assay in infected human blood cells (SYBR Green); format: cell-based; settings: Plasmodium falciparum, Erythrocyte; infected human erythrocytes, 72 hours, SYBR Green fluorescence; read-out: EC50 (nM), inhibitory efficacy in delaying P. falciparum proliferation in infected human blood cells
In short: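 Asexual NF54 or 3D7 parasites in O+ human erythrocytes (final 2.5% hematocrit, 0.3% parasitemia) exposed to compound for 72 h at 37 °C under 93% N2/4% CO2/3% O2. Lysis with SYBR Green I overnight at rt; fluorescence (ex 425/em 530 nm) tracks parasite DNA, giving EC50.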

SMILES	EC50 [1]	EC50 [2]
CN(C(=O)c1ccn2ncc(-c3ccc(C(=O)NCCO)cc3)c2c1)c1ccc(C#N)cn1 [Example 102, N-(5-Cyanopyridin-2-yl)-3-(4-((2-hydroxyethyl)carbamoyl)phenyl)-N-methylpyrazolo[1,5-a]pyridine-5-carboxamide]	660 nM	10 nM
CNC(=O)c1ccc(-c2cnn3ccc(C(=O)N(C)c4ccc(C(F)(F)F)cc4)cc23)cc1 [Example 103, N-Methyl-3-(4-(methylcarbamoyl)phenyl)-N-(4-(trifluoromethyl)phenyl)pyrazolo[1,5-a]pyridine-5-carboxamide]	62 nM	3 nM
CN(C(=O)c1ccn2ncc(-c3ccc(C(=O)NCCN)cc3)c2c1)c1ccc(C#N)cn1 [Example 104, 3-(4-((2-Aminoethyl)carbamoyl)phenyl)-N-(5-cyanopyridin-2-yl)-N-methylpyrazolo[1,5-a]pyridine-5-carboxamide]	1200 nM	125 nM
CN(C(=O)c1ccn2ncc(-c3cnc(Cl)c(NS(C)(=O)=O)c3)c2c1)c1ccc(C#N)cn1 [Example 107, 3-(6-Chloro-5-(methylsulfonamido)pyridin-3-yl)-N-(5-cyanopyridin-2-yl)-N-methylpyrazolo[1,5-a]pyridine-5-carboxamide]	180 nM	10 nM
CN(C(=O)c1ccn2ncc(-c3ccnc(N)c3)c2c1)c1ccc(C#N)cn1 [Example 108, 3-(2-Aminopyridin-4-yl)-N-(5-cyanopyridin-2-yl)-N-methylpyrazolo[1,5-a]pyridine-5-carboxamide]	472 nM	2470 nM
CNC(=O)c1ccc(-c2cnn3ccc(C(=O)N(C)c4ccc(Cl)cc4)cc23)cn1 [Example 109, N-(4-Chlorophenyl)-N-methyl-3-(6-(methylcarbamoyl)pyridin-3-yl)pyrazolo[1,5-a]pyridine-5-carboxamide]	62 nM	19 nM
CNC(=O)c1ccc(-c2cnn3ccc(C(=O)N(CCO)c4ccc(C#N)cc4)cc23)cc1 [Example 110, N-(4-Cyanophenyl)-N-(2-hydroxyethyl)-3-(4-(methylcarbamoyl)phenyl)pyrazolo[1,5-a]pyridine-5-carboxamide]	253 nM	54 nM
CNC(=O)c1ccc(-c2cnn3ccc(C(=O)N(C)c4ccc(OCCN)cn4)cc23)cc1 [Example 111, N-(5-(2-Aminoethoxyl)pyridin-2-yl)-N-methyl-3-(4-(methylcarbamoyl)phenyl)pyrazolo[1,5-a]pyridine-5-carboxamide]	> 10000 nM	6300 nM
CNC(=O)c1ccc(-c2cnn3ccc(C(=O)N(c4ccc(C#N)cn4)C4CCC4)cc23)cc1 [Example 112, N-(5-Cyanopyridin-2-yl)-N-cyclobutyl-3-(4-(methylcarbamoyl)phenyl)pyrazolo[1,5-a]pyridine-5-carboxamide]	9 nM	4 nM
CN(C(=O)c1ccn2ncc(-c3ccc(C(=O)NC4CCNCC4)cc3)c2c1)c1ccc(C#N)cn1 [Example 113, N-(5-Cyanopyridin-2-yl)-N-methyl-3-(4-(piperidin-4-ylcarbamoyl)phenyl)pyrazolo[1,5-a]pyridine-5-carboxamide]	1650 nM	311 nM
CNCCNC(=O)c1ccc(-c2cnn3ccc(C(=O)N(C)c4ccc(C#N)cn4)cc23)cc1 [Example 114, N-(5-Cyanopyridin-2-yl)-N-methyl-3-(4-((2-(methylamino)ethyl)carbamoyl)phenyl)pyrazolo[1,5-a]pyridine-5-carboxamide]	950 nM	52 nM
CN(C)CCNC(=O)c1ccc(-c2cnn3ccc(C(=O)N(C)c4ccc(C#N)cn4)cc23)cc1 [Example 115, N-(5-cyanopyridin-2-yl)-3-(4-((2-(dimethylamino)ethyl)carbamoyl)phenyl)-N-methylpyrazolo[1,5-a]pyridine-5-carboxamide]	79 nM	155 nM
CNC(=O)c1ccc(-c2cnn3ccc(C(=O)N(c4ccc(Cl)cc4)C4CC4)cc23)cc1 [Example 116, N-(4-Chlorophenyl)-N-cyclopropyl-3-(4-(methylcarbamoyl)phenyl)pyrazolo[1,5-a]pyridine-5-carboxamide]	3 nM	1 nM
CNC(=O)c1ccc(-c2cnn3ccc(C(=O)N(CC4CC4)c4ccc(C#N)cn4)cc23)cc1 [Example 117, N-(5-Cyanopyridin-2-yl)-N-(cyclopropylmethyl)-3-(4-(methylcarbamoyl)phenyl)pyrazolo[1,5-a]pyridine-5-carboxamide]	7 nM	4 nM
CNC(=O)c1ccc(-c2cnn3ccc(C(=O)N(c4ccc(C#N)cc4)C4CC4)cc23)cc1 [Example 118, N-(4-Cyanophenyl)-N-cyclopropyl-3-(4-(methylcarbamoyl)phenyl)pyrazolo[1,5-a]pyridine-5-carboxamide]	1 nM	3 nM
CNC(=O)c1ccc(-c2cnn3ccc(C(=O)N(c4ccc(C#N)cn4)C(C)(C)C)cc23)cc1 [Example 119, N-(tert-Butyl)-N-(5-cyanopyridin-2-yl)-3-(4-(methylcarbamoyl)phenyl)pyrazolo[1,5-a]pyridine-5-carboxamide]	56 nM	95 nM
CCN(C(=O)c1ccn2ncc(-c3ccc(S(=O)(=O)NC)cc3)c2c1)c1ccc(C#N)cn1 [Example 140, N-(5-cyanopyridin-2-yl)-N-ethyl-3-(4-[N-methylsulfamoyl]phenyl)pyrazolo[1,5-a]pyridine-5-carboxamide]	84 nM	199 nM
